We go through 4 molecules from patent US10918713B2, “Epitopes from allergen proteins and methods and uses for immune response modulation” (LA JOLLA INSTITUTE FOR ALLERGY AND IMMUNOLOGY, priority 2012, dated 2021).

In assay [1] the test system is PBMC from allergic donors. Description: Dual ELISPOT, total IL-5 and IFN-γ response (SFC). It counts as cell-based, human. The procedure: Spots were counted by computer-assisted image analysis (Zeiss, KS-ELISPOT reader, Munich, Germany).
Each assay was performed in triplicate. The level of statistical significance was determined with a Student's t-test using the mean of triplicate values of the response against relevant pools or individual peptides versus the response against the DMSO control.

The test system of a further assay is HLA-DR. As to the kind of experiment: HLA locus restriction, mAb inhibition of ELISPOT response. Particulars: count; ≥50% inhibition by anti-HLA-DR mAb LB3.1; 0/0/0 = locus could not be determined. The format is cell-based, human. Here is the method:
(§1) To determine the HLA locus restriction of identified epitopes, mAb inhibition assays were performed as described previously (11, 37). Preliminary determinations were made on control T cell clones of known specificity to determine optimal antibody doses leading to complete inhibition of the specific clones, and not associated with inhibition of clones known to be restricted by a different HLA allele or locus. This antibody concentration was then utilized in experiments where a dose response of antigenic peptide was tested in the presence or absence of the specific antibodies. Experimental determinations were performed utilizing ELISPOT assays specific for the particular lymphokine utilized to originally identify the particular epitope mapped.
(§2) For each antigenic region/donor combination short-term T cell lines were derived by extract stimulation of triplicate cultures of 2-3 million cells. IL-2 was added 5-8 days following stimulation. After 14 days of stimulation with the corresponding allergen extract (2-50 μg/ml), the HLA locus that restricted the response to the specific lymphokine was determined by measuring the capacity of mAbs specific for HLA-DR, DP or DQ to inhibit (block) the response. For this, PBMCs were incubated with 10 μg/ml of mAbs (Strategic Biosolutions, Windham, Me.) against HLA-DR (LB3.1), DP (B7/21) or DQ (SVPL3) 30 minutes prior to addition of 10 μg/ml of peptide. Cytokine production induced by positive peptides was then measured in ELISPOT assays as described above. The pan MHC class I Ab (W6/32) was used as a control. The decrease (inhibition) in cytokine production in the presence of an HLA locus specific mAb, relative to production in the absence of mAb, was determined.

Another assay concerns HLA-DQ. The description is as above. It counts as cell-based, human. Particulars: count; ≥50% inhibition by anti-HLA-DQ mAb SVPL3; 0/0/0 = locus could not be determined. The procedure: as §1, §2
For a further assay, the system named is HLA-DP. The assay is described as above. The format is cell-based, human. Conditions: count; ≥50% inhibition by anti-HLA-DP mAb B7/21; 0/0/0 = locus could not be determined. Here is the method: as §1, §2
The next assay deals with DRB3*0101 (Homo sapiens, UniProt P01903+P79483). Description: biochemical.
The next assay addresses DRB3*0202 (Homo sapiens, UniProt P01903+P79483, A212P/D57E/F66Y/L67A/R103Q/R218S/R40L/S89Y/T80R/V86D/Y55F/Y59H). Description: biochemical.
A further assay has as its target DPB1*0401 (Homo sapiens, UniProt P04440+P20036). Description: biochemical.
The target in another assay is DPA1*0103/DPB1*0201 (Homo sapiens, UniProt P04440+P20036, A65V/A84D/A85E/K98E). As to the kind of experiment: biochemical.
The target of the next assay is DRB4*0101 (Homo sapiens, UniProt P01903+P13762, G164S). Description: biochemical.
A further assay addresses DPA1*0201/DPB1*0501 (Homo sapiens, UniProt P04440+P20036, A65V/A84E/F191V/F64L/G113D/G114E/K142R/L158P/M116V/M62Q/P115A/Q81R/R125K/T114A/T199I/T259P/V234M). As to the kind of experiment: biochemical.
A further assay concerns the target DPA1*0201/DPB1*0101 (Homo sapiens, UniProt P04440+P20036, F191V/F38Y/F64Y/G113D/G114E/K142R/L158P/L37V/M105V/M116V/M62Q/P115A/Q81R/R125K/R223Q/T114A/T199I/T259P). Description: biochemical.

Chain of DRB3*0202 (P01903 26-254 limits assumed): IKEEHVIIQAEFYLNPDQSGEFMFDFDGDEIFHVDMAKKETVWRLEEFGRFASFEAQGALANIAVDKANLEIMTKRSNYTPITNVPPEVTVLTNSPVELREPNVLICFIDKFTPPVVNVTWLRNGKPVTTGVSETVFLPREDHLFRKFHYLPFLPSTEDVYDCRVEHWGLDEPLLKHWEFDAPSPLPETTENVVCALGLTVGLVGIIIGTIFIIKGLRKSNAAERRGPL
Chain of DRB3*0202 (P79483 30-266 R40L/Y55F/D57E/Y59H/F66Y/L67A/T80R/V86D/S89Y/R103Q/A212P/R218S limits assumed): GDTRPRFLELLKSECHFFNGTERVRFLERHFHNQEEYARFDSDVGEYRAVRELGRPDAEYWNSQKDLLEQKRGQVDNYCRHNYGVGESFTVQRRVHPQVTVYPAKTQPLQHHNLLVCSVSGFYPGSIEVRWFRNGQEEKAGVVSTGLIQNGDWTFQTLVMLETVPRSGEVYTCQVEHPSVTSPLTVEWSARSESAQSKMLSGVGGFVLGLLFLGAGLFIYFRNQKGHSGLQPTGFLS
Chain of DPA1*0201/DPB1*0101 (P20036 29-260 M62Q/Q81R/T114A/K142R/L158P/F191V, other chains not shown): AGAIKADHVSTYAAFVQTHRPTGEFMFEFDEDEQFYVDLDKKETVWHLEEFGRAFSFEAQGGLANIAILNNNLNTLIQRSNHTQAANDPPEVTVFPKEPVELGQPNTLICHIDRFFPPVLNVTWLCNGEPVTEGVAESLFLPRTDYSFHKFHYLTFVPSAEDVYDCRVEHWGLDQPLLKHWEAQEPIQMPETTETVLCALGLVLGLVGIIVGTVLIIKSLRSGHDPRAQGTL
Chain of DPA1*0201/DPB1*0501 (P20036 29-260 M62Q/Q81R/T114A/K142R/L158P/F191V/T259P, other chains not shown): as the sequence (P20036 29-260 M62Q/Q81R/T114A/K142R/L158P/F191V, other chains not shown) above, with T231P counted along it

In assay [1] (number of allergic donors recognizing the epitope region), “Bet v 1 (111-125): epitope region of allergen Bet v 1, Birch” registered a Donors responding of 3. In addition, in assay [1] (percent of tested allergic donors responding), the “% responding” value was determined as 30.0%. Also, in assay [1] (total response to the epitope region), the “Total SFC” value is listed as 1132 SFC. Besides, in the assay on HLA-DR, the “Region restriction(s) DR” value was 2. Besides, the “Region restriction(s) DQ” value in the assay on HLA-DQ amounted to 0. For the same molecule, the “Region restriction(s) DP” value with HLA-DP is 0.

On to `CC[C@H](C)[C@H](NC(=O)[C@H](CC(=O)O)NC(=O)[C@H](CC(=O)O)NC(=O)[C@H](CO)NC(=O)[C@@H](NC(=O)[C@@H](N)CCCCN)C(C)C)C(=O)N[C@H](C(=O)N[C@@H](Cc1ccc(O)cc1)C(=O)N[C@H](C(=O)N[C@@H](C)C(=O)N[C@H](C(=O)N[C@@H](C)C(=O)N[C@H](C(=O)N[C@@H](CC(C)C)C(=O)N1CCC[C@H]1C(=O)O)[C@@H](C)O)[C@@H](C)O)C(C)C)[C@@H](C)O` [3324.0013], for which the concentration for half-maximal inhibition (IC50) at DRB3*0101 was determined as 6000 nM; against DRB3*0202 it was 5270 nM; at DPB1*0401 it was 1610 nM; against DPA1*0103/DPB1*0201 it was 18000 nM.

Consider `CC[C@H](C)[C@H](N)C(=O)N[C@@H](C)C(=O)N[C@@H](CO)C(=O)N[C@@H](CC(C)C)C(=O)N[C@@H](Cc1ccccc1)C(=O)N[C@@H](C)C(=O)N[C@@H](C)C(=O)N[C@@H](C)C(=O)NCC(=O)N[C@@H](CC(C)C)C(=O)N[C@@H](C)C(=O)N[C@@H](C)C(=O)N[C@@H](C)C(=O)N[C@@H](C)C(=O)N1CCC[C@H]1C(=O)O` [3324.0015], for which the IC50 on DPB1*0401 is 28000 nM; against DRB4*0101, 301 nM.

As for `CC[C@H](C)[C@H](NC(=O)[C@H](Cc1ccc(O)cc1)NC(=O)[C@H](C)NC(=O)[C@H](CC(=O)O)NC(=O)[C@H](C)NC(=O)[C@@H](N)C(C)C)C(=O)N[C@H](C(=O)N[C@@H](CC(C)C)C(=O)N[C@H](C(=O)N[C@H](C(=O)N[C@@H](CC(C)C)C(=O)N1CCC[C@H]1C(=O)N[C@@H](CCCCN)C(=O)N[C@@H](CO)C(=O)N[C@@H](CO)C(=O)O)[C@@H](C)O)C(C)C)[C@@H](C)O` [3324.0016], the IC50 stood at 2500 nM against DPB1*0401, 7.1 nM against DPA1*0201/DPB1*0501 and 40 nM against DPA1*0201/DPB1*0101.
